Patent US5338550A, “Stereoisomer therapy” (priority 1992, dated 1994)
Converted amounts (≈) assume the structure as drawn.

Key:
Crystal lattice energy = assay type: physicochemical
[1] = Density (bulk, tapped, tablet); assay type: physicochemical
Description: Next, the granulations are fed to a Manesty layer press fitted with two hoppers, one hopper is filled with the slow-layer granulation, the other hopper is filled with the fast-layer granulation. A bilayer tablet dosage form is then compressed by first forming a 690 mg second layer, then a 230 mg first layer is pressed in release retaining relation to the second layer. The first layer and second layers are pressed together under a pressure head of two tons. This manufacturing process produces the bilayer dosage form. […] The final composition of the second layer comprises 58 wt % racemic (±) ibuprofen, 15 wt % hydroxypropylmethylcellulose having a 242,000 molecular weight, 25 wt % hydroxypropylmethylcellulose having a 9,200 molecular weight and 2 wt % stearic acid.

For `CC(C)Cc1ccc(C(C)C(=O)O)cc1` (racemic) [racemic ibuprofen], the crystal lattice energy (Crystal lattice energy) was 117 joules/g, the bulk density [1] was 0.328 g/cc and the tablet density [1] was 1.052 g/cc. For the same compound, the tapped density [1] was 0.483 g/cc, the solubility (physchem; artificial gastric juice) was 79 µg/mL (≈ 383 µM) and the solubility (physchem; artificial intestinal juice) was 5910 µg/mL (≈ 28600 µM). For the same compound, the solubility (physchem; water) was 82 µg/mL (≈ 398 µM).

`CC(C)Cc1ccc([C@H](C)C(=O)O)cc1` [S(+) ibuprofen] gave a crystal lattice energy (Crystal lattice energy) of 90.3 joules/g, a bulk density [1] of 0.277 g/cc and a tablet density [1] of 1.038 g/cc. The tapped density [1] was 0.391 g/cc, the solubility (physchem; artificial gastric juice) was 131 µg/mL (≈ 635 µM) and the solubility (physchem; artificial intestinal juice) was 6980 µg/mL (≈ 33800 µM). For the same compound, the solubility (physchem; water) was 134 µg/mL (≈ 650 µM).
